In PMC7468467, “Characterization of a Novel Chromosomal Class C β-Lactamase, YOC-1, and Comparative Genomics Analysis of a Multidrug Resistance Plasmid in Yokenella regensburgei W13” (Frontiers in Microbiology, 2020) one finds IC50 data, which are given here for 3 compounds.

T1 sequence (A0AB38FXT7 entry or part of it): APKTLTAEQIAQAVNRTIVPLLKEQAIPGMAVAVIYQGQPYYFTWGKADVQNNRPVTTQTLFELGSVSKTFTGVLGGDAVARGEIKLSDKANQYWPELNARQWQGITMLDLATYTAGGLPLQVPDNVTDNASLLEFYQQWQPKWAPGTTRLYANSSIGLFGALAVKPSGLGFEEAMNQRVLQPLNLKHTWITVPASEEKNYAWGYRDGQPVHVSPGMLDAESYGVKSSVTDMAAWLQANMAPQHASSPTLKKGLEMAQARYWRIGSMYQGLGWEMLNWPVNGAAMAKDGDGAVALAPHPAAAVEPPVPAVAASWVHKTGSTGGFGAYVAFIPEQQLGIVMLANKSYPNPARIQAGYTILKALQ

The test has as its target T1, YOC-1 (Yokenella regensburgei, UniProt A0AB38FXT7).
T1 construct: gene C7387_3136; signal peptide (residues 1-22) removed; pCold I in E. coli BL21, N-terminal His tag removed by enterokinase
The experiment in a line: nitrocefin hydrolysis inhibition, spectrophotometric. The class given is biochemical. The following applies: 100 μM nitrocefin; 5 min preincubation; 37°C.
With `Nc1nc2c(ncn2[C@@H]2O[C@H](COP(=O)(O)O)[C@@H](O)[C@H]2O)c(=O)[nH]1` [GMP], the 50% inhibitory concentration (IC50) was determined as 81.73 ± 0.02 µM.
The compound `NC(=O)[C@@H]1CC[C@@H]2CN1C(=O)N2OS(=O)(=O)O` [avibactam] returned an IC50 of 0.00117 ± 0.0002 µM.
As to `O=C(O)[C@H]1/C(=C/CO)O[C@@H]2CC(=O)N21` [clavulanic acid], the concentration for half-maximal inhibition (IC50) came to 57.33 ± 0.03 µM.

A word on the IC50: it is the concentration that gives 50% inhibition.
